Patent US9695155B2, “Herbicidal substituted pyrimidinyloxy benzene compounds” (E. I. DU PONT DE NEMOURS AND COMPANY, priority 2013, dated 2017)
Read-outs that look alike come from different tables or passages of the source.

How the values were obtained:
barnyardgrass [1] = experiment: Test B flooded paddy test; assay type: in vivo, Echinochloa crus-galli; conditions: Flood, 250 g ai/ha, 0 to 100 scale where 0 is no effect and 100 is complete control; for pest or weed control at 250 g/ha: Echinochloa crus-galli, read-out: Plant response rating, Barnyardgrass
Procedure, shortened: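 Scores from 0 (no effect) to 100 (complete control) are visual comparisons with controls, taken 13 to 15 days after compound was applied into floodwater 3 cm deep around 2-leaf plants.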

Italian ryegrass = experiment: Test C preemergence; assay type: in vivo, Lolium multiflorum; conditions: for Ryegrass, Italian plant response rating: preemergence, scale 0 (no effect) to 100 (complete control)
Procedure, shortened: (§1)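 Injury was assessed visually against controls 13 to 15 days after application, with 0 meaning no effect and 100 full control; missing entries are shown as a dash. Preemergence sprays hit seeded loam–sand soil, postemergence sprays hit 1- to 4-leaf plants.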

barnyardgrass [2] = experiment: Test A preemergence; assay type: in vivo, Echinochloa crus-galli; conditions: for pest or weed control at 125 g/ha / pest or weed control at 500 g/ha: Echinochloa crus-galli, pre-emergence, 240 h
Procedure, shortened: (§2)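 Visual injury scored 0–100 (100 = complete control) against untreated controls about 10 days after treatment in a greenhouse. Test chemicals, formulated with surfactant in non-phytotoxic solvent, were sprayed on soil preemergence or on 2-10 cm, one- to two-leaf plants postemergence.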

large (Lg) crabgrass = experiment: Test C preemergence; assay type: in vivo, Digitaria sanguinalis; conditions: for Crabgrass, Large plant response rating: preemergence, scale 0 (no effect) to 100 (complete control)
Procedure, shortened: as §1

morningglory = experiment: Test A preemergence; assay type: in vivo, Ipomoea spp.
Procedure, shortened: as §2

chickweed = experiment: Test C postemergence; assay type: in vivo, Stellaria media
Procedure, shortened: as §1

soybean = experiment: Test C preemergence; assay type: in vivo, Glycine max; conditions: for Soybean plant response rating: preemergence, scale 0 (no effect) to 100 (complete control)
Procedure, shortened: as §1

corn = experiment: Test A postemergence; assay type: in vivo, Zea mays
Procedure, shortened: as §2

wheat = experiment: Test A preemergence; assay type: in vivo, Triticum aestivum
Procedure, shortened: as §2

galium = experiment: Test C preemergence; assay type: in vivo, Galium aparine; conditions: for Galium plant response rating: preemergence, scale 0 (no effect) to 100 (complete control)
Procedure, shortened: as §1

velvetleaf = experiment: Test A preemergence; assay type: in vivo, Abutilon theophrasti
Procedure, shortened: as §2

wild oat = experiment: Test C postemergence; assay type: in vivo, Avena fatua
Procedure, shortened: as §1

[3] = Preemergence, 31 g ai/ha, scale 0 to 100, 0 no effect, 100 complete control
[4] = 125 g ai/ha, 0 to 100 scale where 0 is no effect and 100 is complete control
[5] = 500 g ai/ha, 0 to 100 scale, 0 no effect, 100 complete control, approx. 10 days
[6] = Postemergence, 31 g ai/ha, scale 0 to 100 (0 no effect, 100 complete control), 13 to 15 days
[7] = Postemergence, 62 g ai/ha, scale 0 to 100 (0 no effect, 100 complete control)
[8] = 500 g ai/ha, 0 to 100 scale, 0 no effect, 100 complete control
[9] = Stellaria media, post-emergence, Postemergence, 62 g ai/ha, scale 0 to 100 (0 no effect, 100 complete control), read-out: Plant response rating, Chickweed
[10] = Avena fatua, post-emergence, Postemergence, 62 g ai/ha, scale 0 to 100 (0 no effect, 100 complete control), read-out: Plant response rating, Oat, Wild

## FC(F)(F)c1cnn(-c2ccccc2Oc2ncc(Cl)cn2)c1 [Compound 16]
Barnyardgrass [1]
  Plant response rating, Barnyardgrass: 40
Italian ryegrass; 62 g ai/ha
  Ryegrass, Italian plant response rating: 30
Italian ryegrass; 125 g ai/ha
  Ryegrass, Italian plant response rating: 80
Italian ryegrass; 250 g ai/ha
  Ryegrass, Italian plant response rating: 90
Italian ryegrass; [3]
  Plant response rating, Ryegrass, Italian: 0
Barnyardgrass [2]; [4]
  Barnyardgrass plant response rating: 100
Barnyardgrass [2]; [5]
  Barnyardgrass plant response rating: 100
Large (Lg) crabgrass; 62 g ai/ha
  Crabgrass, Large plant response rating: 100
Large (Lg) crabgrass; 125 g ai/ha
  Crabgrass, Large plant response rating: 100
Large (Lg) crabgrass; 250 g ai/ha
  Crabgrass, Large plant response rating: 100
Large (Lg) crabgrass; [3]
  Plant response rating, Crabgrass, Large: 98
morningglory; [4]
  Morningglory plant response rating: 30
morningglory; [5]
  Morningglory plant response rating: 90
chickweed; 125 g ai/ha, postemergence
  Plant response rating (0 to 100), Chickweed: 75
chickweed; 250 g ai/ha, postemergence
  Plant response rating (0 to 100), Chickweed: 90
chickweed; [6]
  Plant response rating, Chickweed: 40
chickweed; [7]
  Plant response rating, Chickweed: 65
soybean; 62 g ai/ha
  Soybean plant response rating: 90
soybean; 125 g ai/ha
  Soybean plant response rating: 90
soybean; 250 g ai/ha
  Soybean plant response rating: 90
soybean; [3]
  Plant response rating, Soybean: 75
corn; [4]
  Plant response rating, Corn: 70
corn; [8]
  Plant response rating, Corn: 80
wheat; [4]
  Wheat plant response rating: 20
wheat; [5]
  Wheat plant response rating: 60
galium; 62 g ai/ha
  Galium plant response rating: 100
galium; 125 g ai/ha
  Galium plant response rating: 100
galium; 250 g ai/ha
  Galium plant response rating: 100
galium; [3]
  Plant response rating, Galium: 95
velvetleaf; [4]
  Velvetleaf plant response rating: 100
velvetleaf; [5]
  Velvetleaf plant response rating: 100
Wild oat; 125 g ai/ha, postemergence
  Plant response rating (0 to 100), Oat, Wild: 35
Wild oat; 250 g ai/ha, postemergence
  Plant response rating (0 to 100), Oat, Wild: 45
Wild oat; [6]
  Plant response rating, Oat, Wild: 25
Wild oat; [7]
  Plant response rating, Oat, Wild: 35

## Fc1cnc(Oc2ccccc2-n2cc(Br)cn2)nc1 [Compound 10, 2-[2-(4-bromo-1H-pyrazol-1-yl)phenoxy]-5-fluoropyrimidine]
Barnyardgrass [1]
  pest or weed control at 250 g/ha: 0%
Barnyardgrass [2]; 125 g ai/ha, 0 to 100 scale where 0 is no effect and 100 is complete control, read-out: Barnyardgrass plant response rating
  pest or weed control at 125 g/ha: 60%
Barnyardgrass [2]; 500 g ai/ha, 0 to 100 scale, 0 no effect, 100 complete control, approx. 10 days, read-out: Barnyardgrass plant response rating
  pest or weed control at 500 g/ha: 90%
morningglory; Ipomoea, pre-emergence, 240 h, 125 g ai/ha, 0 to 100 scale where 0 is no effect and 100 is complete control, read-out: Morningglory plant response rating
  pest or weed control at 125 g/ha: 40%
morningglory; Ipomoea, pre-emergence, 240 h, 500 g ai/ha, 0 to 100 scale, 0 no effect, 100 complete control, approx. 10 days, read-out: Morningglory plant response rating
  pest or weed control at 500 g/ha: 60%
chickweed; Stellaria media, post-emergence, 125 g ai/ha, postemergence, read-out: Plant response rating (0 to 100), Chickweed
  pest or weed control at 125 g/ha: 35%
chickweed; Stellaria media, post-emergence, 250 g ai/ha, postemergence, read-out: Plant response rating (0 to 100), Chickweed
  pest or weed control at 250 g/ha: 98%
chickweed; Stellaria media, post-emergence, Postemergence, 31 g ai/ha, scale 0 to 100 (0 no effect, 100 complete control), 13 to 15 days, read-out: Plant response rating, Chickweed
  pest or weed control at 31 g/ha: 5%
chickweed; [9]
  pest or weed control at 62 g/ha: 30%
corn; Zea mays, post-emergence, 240 h, 125 g ai/ha, 0 to 100 scale where 0 is no effect and 100 is complete control
  Corn plant response rating (crop injury, 0 = no effect, 100 = complete kill) at 125 g/ha: 20%
corn; Zea mays, post-emergence, 240 h, 500 g ai/ha, 0 to 100 scale, 0 no effect, 100 complete control, read-out: Plant response rating Corn
  plant injury at 500 g/ha: 50%
wheat; Triticum aestivum, pre-emergence, 240 h, 125 g ai/ha, 0 to 100 scale where 0 is no effect and 100 is complete control, read-out: Wheat plant response rating
  plant injury at 125 g/ha: 0%
wheat; Triticum aestivum, pre-emergence, 240 h, 500 g ai/ha, 0 to 100 scale, 0 no effect, 100 complete control, approx. 10 days, read-out: Wheat plant response rating
  plant injury at 500 g/ha: 20%
velvetleaf; Abutilon theophrasti, pre-emergence, 240 h, 125 g ai/ha, 0 to 100 scale where 0 is no effect and 100 is complete control, read-out: Velvetleaf plant response rating
  pest or weed control at 125 g/ha: 100%
velvetleaf; Abutilon theophrasti, pre-emergence, 240 h, 500 g ai/ha, 0 to 100 scale, 0 no effect, 100 complete control, approx. 10 days, read-out: Velvetleaf plant response rating
  pest or weed control at 500 g/ha: 100%
Wild oat; Avena fatua, post-emergence, 125 g ai/ha, postemergence, read-out: Plant response rating (0 to 100), Oat, Wild
  pest or weed control at 125 g/ha: 5%
Wild oat; Avena fatua, post-emergence, 250 g ai/ha, postemergence, read-out: Plant response rating (0 to 100), Oat, Wild
  pest or weed control at 250 g/ha: 30%
Wild oat; Avena fatua, post-emergence, Postemergence, 31 g ai/ha, scale 0 to 100 (0 no effect, 100 complete control), 13 to 15 days, read-out: Plant response rating, Oat, Wild
  pest or weed control at 31 g/ha: 0%
Wild oat; [10]
  pest or weed control at 62 g/ha: 0%

## N#Cc1cccc(Oc2ncc(Cl)cn2)c1-n1cnc(Br)c1 [Compound 74]
Barnyardgrass [1]
  Plant response rating, Barnyardgrass: 0
Barnyardgrass [2]; [4]
  Plant response rating, Barnyardgrass: 70
Barnyardgrass [2]; [5]
  Barnyardgrass plant response rating: 100
morningglory; [4]
  Plant response rating, Morningglory: 70
morningglory; [5]
  Morningglory plant response rating: 100
chickweed; 125 g ai/ha, postemergence
  Plant response rating (0 to 100), Chickweed: 50
chickweed; 250 g ai/ha, postemergence
  Plant response rating (0 to 100), Chickweed: 50
chickweed; [6]
  Plant response rating, Chickweed: 25
chickweed; [7]
  Plant response rating, Chickweed: 30
corn; [4]
  Plant response rating, Corn: 30
corn; [8]
  Plant response rating, Corn: 70
wheat; [4]
  Plant response rating, Wheat: 0
wheat; [5]
  Wheat plant response rating: 40
velvetleaf; [4]
  Plant response rating, Velvetleaf: 70
velvetleaf; [5]
  Velvetleaf plant response rating: 100
Wild oat; 125 g ai/ha, postemergence
  Plant response rating (0 to 100), Oat, Wild: 10
Wild oat; 250 g ai/ha, postemergence
  Plant response rating (0 to 100), Oat, Wild: 10
Wild oat; [6]
  Plant response rating, Oat, Wild: 0
Wild oat; [7]
  Plant response rating, Oat, Wild: 0

## Fc1cccc(Oc2ncc(Cl)cn2)c1-n1cc(Br)cn1 [Compound 178, 2-[2-(4-bromo-1H-pyrazol-1-yl)-3-fluorophenoxy]-5-chloropyrimidine]
Barnyardgrass [1]
  pest or weed control at 250 g/ha: 0%
Barnyardgrass [2]; 125 g ai/ha, 0 to 100 scale where 0 is no effect and 100 is complete control, read-out: Plant response rating, Barnyardgrass
  pest or weed control at 125 g/ha: 90%
Barnyardgrass [2]; 500 g ai/ha, 0 to 100 scale where 0 is no effect and 100 is complete control, read-out: Barnyardgrass plant response rating
  pest or weed control at 500 g/ha: 100%
morningglory; 125 g ai/ha
  Morningglory plant response rating (0 to 100 scale): 10
morningglory; Ipomoea, pre-emergence, 240 h, 500 g ai/ha, 0 to 100 scale where 0 is no effect and 100 is complete control, read-out: Morningglory plant response rating
  pest or weed control at 500 g/ha: 90%
chickweed; Stellaria media, post-emergence, 16 g ai/ha, postemergence, 0 is no effect, 100 is complete control, read-out: Plant response rating (0 to 100), Chickweed
  pest or weed control at 16 g/ha: 40%
chickweed; Stellaria media, post-emergence, 31 g ai/ha, postemergence, visual rating, scale 0 to 100 (0 no effect, 100 complete control), 13 to 15 days, read-out: Chickweed plant response rating
  pest or weed control at 31 g/ha: 50%
chickweed; Stellaria media, post-emergence, 125 g ai/ha, postemergence, visual rating, scale 0 to 100 (0 no effect, 100 complete control), read-out: Plant response rating, Chickweed
  pest or weed control at 125 g/ha: 80%
chickweed; [9]
  pest or weed control at 62 g/ha: 65%
corn; Zea mays, post-emergence, 240 h, 125 g ai/ha, 0 to 100 scale where 0 is no effect and 100 is complete control, read-out: Corn plant response rating
  plant injury at 125 g/ha: 30%
corn; Zea mays, post-emergence, 240 h, 500 g ai/ha, 0 to 100 scale where 0 is no effect and 100 is complete control
  Corn plant response rating (crop injury, 0 = no effect, 100 = complete kill) at 500 g/ha: 70%
wheat; 125 g ai/ha
  Wheat plant response rating (0 to 100 scale): 0
wheat; Triticum aestivum, pre-emergence, 240 h, 500 g ai/ha, 0 to 100 scale where 0 is no effect and 100 is complete control, read-out: Wheat plant response rating
  plant injury at 500 g/ha: 40%
velvetleaf; 125 g ai/ha
  Velvetleaf plant response rating (0 to 100 scale): 80
velvetleaf; Abutilon theophrasti, pre-emergence, 240 h, 500 g ai/ha, 0 to 100 scale where 0 is no effect and 100 is complete control, read-out: Velvetleaf plant response rating
  pest or weed control at 500 g/ha: 100%
Wild oat; 31 g ai/ha, postemergence, visual rating, scale 0 to 100 (0 no effect, 100 complete control), 13 to 15 days
  Oat, Wild plant response rating: 0
Wild oat; Avena fatua, post-emergence, 16 g ai/ha, postemergence, 0 is no effect, 100 is complete control, read-out: Plant response rating (0 to 100), Oat, Wild
  pest or weed control at 16 g/ha: 0%
Wild oat; Avena fatua, post-emergence, 125 g ai/ha, postemergence, visual rating, scale 0 to 100 (0 no effect, 100 complete control), read-out: Plant response rating, Oat, Wild
  pest or weed control at 125 g/ha: 30%
Wild oat; [10]
  pest or weed control at 62 g/ha: 10%
